# Measurements reported in patent US9302999B2, “Substituted triazoles as herbicides” (E. I. DU PONT DE NEMOURS AND COMPANY, priority 2012, dated 2016).
# What was measured:
# Type in all cases: in vivo
# [1] = system: pigweed (Amaranthus retroflexus); assay: Test A pre-/postemergence: pigweed
# Method in brief: (§1)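 Rating scale 0–100 (100 = complete control), visual, ~10 days after application in the greenhouse. Applications: preemergence directed soil spray; postemergence at 1–2 leaves.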
# [2] = system: wheat (Triticum aestivum); assay: Test A pre-/postemergence: wheat
# Method in brief: as §1
# [3] = system: barnyardgrass (Echinochloa crus-galli); assay: Test B flooded paddy: barnyardgrass; conditions: Flood; 250 g ai/ha; applied to paddy water at 2-leaf stage; visually evaluated after 13 to 15 days
# Method in brief: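 Visual ratings (0 = no effect, 100 = complete control) versus untreated controls were taken 13–15 days after treatment of greenhouse plants. Treatment was added to paddy water held at 3 cm depth on 2-leaf-stage seedlings.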
# [4] = system: ryegrass, Italian (Italian ryegrass, Lolium multiflorum); assay: Test C pre-/postemergence: ryegrass, Italian
# Method in brief: (§2)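 Visual injury scored 0–100 (100 = complete control) against untreated controls after 13–15 greenhouse days. Surfactant-containing solvent formulations applied either to soil after sowing (loam/sand) or over 1- to 4-leaf plants, 2–18 cm tall.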
# [5] = system: galium (catchweed bedstraw, Galium aparine); assay: Test C pre-/postemergence: galium
# Method in brief: as §2
# corn (Zea mays) = assay: Test C pre-/postemergence: corn
# Method in brief: as §2
# [6] = system: large crabgrass (Digitaria sanguinalis); assay: Test C pre-/postemergence: large crabgrass
# Method in brief: as §2
# [7] = system: foxtail, giant (giant foxtail, Setaria faberii); assay: Test C pre-/postemergence: foxtail, giant
# Method in brief: as §2
# [8] = system: lambsquarters (Chenopodium album); assay: Test C pre-/postemergence: lambsquarters
# Method in brief: as §2
# [9] = system: morningglory (Ipomoea coccinea); assay: Test C pre-/postemergence: morningglory
# Method in brief: as §2
# [10] = Postemergence, 125 g ai/ha, 0 to 100 scale, 0 is no effect, 100 is complete control
# [11] = Postemergence, 500 g ai/ha, 0 to 100 scale, 0 is no effect, 100 is complete control
# [12] = Preemergence, 125 g ai/ha, 0 to 100 scale where 0 is no effect and 100 is complete control
# [13] = Preemergence, 500 g ai/ha, 0 to 100 scale (0 no effect, 100 complete control)
# [14] = Postemergence, 31 g ai/ha, scale 0 to 100 (0 no effect, 100 complete control)
# [15] = Postemergence, 62 g ai/ha, scale 0 to 100 (0 no effect, 100 complete control)
# [16] = Postemergence, 125 g ai/ha, scale 0 to 100, 0 no effect, 100 complete control
# [17] = Postemergence, 250 g ai/ha, scale 0 to 100 (0 no effect, 100 complete control)
# [18] = Preemergence, 31 g ai/ha, scale 0 (no effect) to 100 (complete control)
# [19] = Preemergence, 62 g ai/ha, scale of 0 to 100, 0 is no effect, 100 is complete control
# [20] = Preemergence, 125 g ai/ha, scale 0 to 100, 0 no effect, 100 complete control
# [21] = Preemergence, 250 g ai/ha, scale 0 to 100, 0 no effect, 100 complete control
# [22] = Postemergence, 250 g ai/ha, scale 0 to 100
compound,measurement,setting,value
CCc1nn(-c2ccc(C(F)(F)F)cc2)nc1Oc1ccnc(C(F)(F)F)c1 [Compound 169],"Plant response rating, Pigweed",[1]; [10],100
same,Pigweed plant response rating,[1]; [11],100
same,"Plant response rating, Pigweed",[1]; [12],100
same,"Plant response rating, Pigweed",[1]; [13],100
same,"Plant response rating, Wheat",[2]; [10],30
same,Wheat plant response rating,[2]; [11],40
same,"Plant response rating, Wheat",[2]; [12],20
same,"Plant response rating, Wheat",[2]; [13],50
same,"Plant response rating, Barnyardgrass (0 to 100 scale, 0 is no effect, 100 is complete control)",[3],75
same,"Plant response rating, Ryegrass, Italian",[4]; [14],10
same,"Plant response rating, Ryegrass, Italian",[4]; [15],10
same,"Plant response rating, Ryegrass, Italian",[4]; [16],25
same,"Plant response rating, Ryegrass, Italian",[4]; [17],40
same,"Plant response rating, Ryegrass, Italian",[4]; [18],85
same,"Plant response rating, Ryegrass, Italian",[4]; [19],90
same,"Plant response rating, Ryegrass, Italian",[4]; [20],90
same,"Plant response rating, Ryegrass, Italian",[4]; [21],95
same,"Plant response rating, Galium",[5]; [14],80
same,"Plant response rating, Galium",[5]; [15],90
same,"Plant response rating, Galium",[5]; [16],90
same,"Plant response rating, Galium",[5]; [17],95
same,"Plant response rating, Galium",[5]; [18],100
same,"Plant response rating, Galium",[5]; [19],100
same,"Plant response rating, Galium",[5]; [20],100
same,"Plant response rating, Galium",[5]; [21],100
same,"Plant response rating, Corn",corn (Zea mays); [14],10
same,"Plant response rating, Corn",corn (Zea mays); [15],15
same,"Plant response rating, Corn",corn (Zea mays); [16],20
same,"Plant response rating, Corn",corn (Zea mays); [22],30
same,"Plant response rating, Corn",corn (Zea mays); [18],5
same,"Plant response rating, Corn",corn (Zea mays); [19],5
same,"Plant response rating, Corn",corn (Zea mays); [20],10
same,"Plant response rating, Corn",corn (Zea mays); [21],20
same,"Plant response rating, Crabgrass, Large",[6]; [14],35
same,"Plant response rating, Crabgrass, Large",[6]; [15],35
same,"Plant response rating, Crabgrass, Large",[6]; [16],40
same,"Plant response rating, Crabgrass, Large",[6]; [22],80
same,"Plant response rating, Crabgrass, Large",[6]; [18],100
same,"Plant response rating, Crabgrass, Large",[6]; [19],100
same,"Plant response rating, Crabgrass, Large",[6]; [20],100
same,"Plant response rating, Crabgrass, Large",[6]; [21],100
same,"Plant response rating, Foxtail, Giant",[7]; [14],20
same,"Plant response rating, Foxtail, Giant",[7]; [15],65
same,"Plant response rating, Foxtail, Giant",[7]; [16],65
same,"Plant response rating, Foxtail, Giant",[7]; [22],90
same,"Plant response rating, Foxtail, Giant",[7]; [18],100
same,"Plant response rating, Foxtail, Giant",[7]; [19],100
same,"Plant response rating, Foxtail, Giant",[7]; [20],100
same,"Plant response rating, Foxtail, Giant",[7]; [21],100
same,"Plant response rating, Lambsquarters",[8]; [14],90
same,"Plant response rating, Lambsquarters",[8]; [15],90
same,"Plant response rating, Lambsquarters",[8]; [16],98
same,"Plant response rating, Lambsquarters",[8]; [17],98
same,"Plant response rating, Lambsquarters",[8]; [18],90
same,"Plant response rating, Lambsquarters",[8]; [19],90
same,"Plant response rating, Lambsquarters",[8]; [20],90
same,"Plant response rating, Lambsquarters",[8]; [21],90
same,"Plant response rating, Morningglory",[9]; [14],98
same,"Plant response rating, Morningglory",[9]; [16],100
same,"Plant response rating, Morningglory",[9]; [17],100
same,"Plant response rating, Morningglory",[9]; [18],25
same,"Plant response rating, Morningglory",[9]; [19],55
same,"Plant response rating, Morningglory",[9]; [20],80
same,"Plant response rating, Morningglory",[9]; [21],85
